Data published in US20230085307A1, “PYRIDAZINONE COMPOUND AND HERBICIDE” (NISSAN CHEMICAL CORPORATION, priority 2019, published 2023).

Experiments:
windgrass = test: Test Example 5: herbicidal effect by foliage application, plastic box (Table 20, symbol L); format: in vivo, windgrass (Apera spica-venti); conditions: foliage application, 3 weeks after application
Summary of the method: (§1)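 Foliar spray test: emulsion formulation diluted in water to a set application rate, sprayed onto 14-day-old plants raised in diluvial soil at 25° C to 30° C under glass. Both herbicidal effect and crop effect rated visually three weeks later.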

southern crabgrass = test: Test Example 4: herbicidal effect by soil treatment (Table 19, symbol F); format: in vivo, southern crabgrass (Digitaria ciliaris)
Summary of the method: (§2)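 Step 1: sow seeds in sterilized diluvial soil, cover ~1.5 cm. Step 2: spray diluted emulsion onto soil surface at predetermined rate. Step 3: greenhouse, 25–30° C, three weeks. Step 4: grade effect on each plant by earlier criteria.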

barnyard grass = test: Test Example 4: herbicidal effect by soil treatment (Table 19, symbol H); format: in vivo, barnyard grass (Echinochloa crus-galli)
Summary of the method: as §2

oval-leafed pondweed = test: Test Example 1: herbicidal activity, application before weed generation under submerged conditions (Table 16, symbol C); format: in vivo, oval-leafed pondweed (Monochoria vaginalis)
Summary of the method: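 Submerged Wagner pots (alluvial soil, 4 cm water) sown with weed seeds and planted with 2.5-leaf rice seedlings; emulsifiable concentrate diluted in water applied to water surface on sowing day. Held in greenhouse at 25-30 °C; injury scored 0-5 by herbicidal rate after three weeks.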

chickweed = test: Test Example 4: herbicidal effect by soil treatment (Table 19, symbol P); format: in vivo, common chickweed (Stellaria media)
Summary of the method: as §2

lambsquarters [1] = test: Test Example 5: herbicidal effect by foliage application, plastic box (Table 20, symbol O); format: in vivo, lambsquarters (Chenopodium album); conditions: foliage application, 3 weeks after application
Summary of the method: as §1

lambsquarters [2] = test: Test Example 4: herbicidal effect by soil treatment (Table 19, symbol O); format: in vivo, lambsquarters (Chenopodium album)
Summary of the method: as §2

wild oat = test: Test Example 4: herbicidal effect by soil treatment (Table 19, symbol I); format: in vivo, wild oat (Avena fatua)
Summary of the method: as §2

velvetleaf [3] = test: Test Example 5: herbicidal effect by foliage application, plastic box (Table 20, symbol M); format: in vivo, velvetleaf (Abutilon theophrasti); conditions: foliage application, 3 weeks after application
Summary of the method: as §1

velvetleaf [4] = test: Test Example 4: herbicidal effect by soil treatment (Table 19, symbol M); format: in vivo, velvetleaf (Abutilon theophrasti)
Summary of the method: as §2

persian speedwell = test: Test Example 4: herbicidal effect by soil treatment (Table 19, symbol R); format: in vivo, Persian speedwell (Veronica persica)
Summary of the method: as §2

Italian ryegrass = test: Test Example 5: herbicidal effect by foliage application, plastic box (Table 20, symbol K); format: in vivo, Italian ryegrass (Lolium multiflorum); conditions: foliage application, 3 weeks after application
Summary of the method: as §1

green foxtail = test: Test Example 4: herbicidal effect by soil treatment (Table 19, symbol G); format: in vivo, green foxtail (Setaria viridis)
Summary of the method: as §2

Japanese bulrush = test: Test Example 2: herbicidal activity, application during weed generation under submerged conditions (Table 17, symbol B); format: in vivo, Japanese bulrush (Schoenoplectus juncoides); conditions: application during weed generation, submerged conditions
Summary of the method: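 Mixed weed seedlings in alluvial soil under a 4 cm water layer, greenhouse-grown at 25–30° C. Compound given as a diluted emulsion into the floodwater at the 1–2 leaf stage; response graded after three weeks.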

blackgrass = test: Test Example 4: herbicidal effect by soil treatment (Table 19, symbol J); format: in vivo, blackgrass (Alopecurus myosuroides)
Summary of the method: as §2

Row | Structure (SMILES) | effect on windgrass (L) (windgrass; 320 g/ha) | herbicidal effect rating, F: southern crabgrass (southern crabgrass; 320 g/ha) | herbicidal effect rating, H: barnyard grass (barnyard grass; 320 g/ha) | Herbicidal effect on C: oval-leafed pondweed (grade 0-5) (oval-leafed pondweed; 320 g/ha applied herbicide) | herbicidal effect rating, P: chickweed (chickweed; 320 g/ha) | effect on lambsquarters (O) (lambsquarters [1]; 320 g/ha) | herbicidal effect rating, O: lambsquarters (lambsquarters [2]; 320 g/ha) | herbicidal effect rating, I: wild oat (wild oat; 320 g/ha) | effect on velvetleaf (M) (velvetleaf [3]; 320 g/ha) | herbicidal effect rating, M: velvetleaf (velvetleaf [4]; 320 g/ha) | herbicidal effect rating, R: persian speedwell (persian speedwell; 320 g/ha) | effect on Italian ryegrass (K) (Italian ryegrass; 320 g/ha) | herbicidal effect rating, G: green foxtail (green foxtail; 320 g/ha) | herbicidal effect rating, B: Japanese bulrush (Japanese bulrush; AAH 320 g/ha) | herbicidal effect rating, J: blackgrass (blackgrass; 320 g/ha) | other results
1 | COc1ccc(-c2sc3ccc(F)cc3c2-c2c(O)c(C)nn(C)c2=O)cc1 [2-026] | 4 (Herbicidal rate of 70% or more and less than 90%) | 4 (Herbicidal rate of 70% or more and less than 90%) | 4 (Herbicidal rate of 70% or more and less than 90%) | 4 (Herbicidal rate of 70% or more and less than 90%) | 4 (Herbicidal rate of 70% or more and less than 90%) | 4 (Herbicidal rate of 70% or more and less than 90%) | 5 (Herbicidal rate of 90% or more (almost completely withered)) | 3 (Herbicidal rate of 40% or more and less than 70%) | 5 (Herbicidal rate of 90% or more (almost completely withered)) | 5 (Herbicidal rate of 90% or more (almost completely withered)) | 5 (Herbicidal rate of 90% or more (almost completely withered)) | 4 (Herbicidal rate of 70% or more and less than 90%) | 3 (Herbicidal rate of 40% or more and less than 70%) | 4 (Herbicidal rate of 70% or more and less than 90%) | 3 (Herbicidal rate of 40% or more and less than 70%) | –
2 | CCCC(=O)Oc1c(C)nn(C)c(=O)c1-c1c(-c2ccccc2OCC)sc2ccc(F)cc12 [2-029] | – | – | – | – | – | – | – | – | – | – | – | – | – | – | – | effect on windgrass (L) (windgrass; 266 g/ha): 1 (Herbicidal rate of 5% or more and less than 20%); herbicidal effect rating, F: southern crabgrass (southern crabgrass; 266 g/ha): 3 (Herbicidal rate of 40% or more and less than 70%); herbicidal effect rating, H: barnyard grass (barnyard grass; 266 g/ha): 3 (Herbicidal rate of 40% or more and less than 70%); Herbicidal effect on C: oval-leafed pondweed (grade 0-5) (oval-leafed pondweed; 266 g/ha applied herbicide): 0 (Herbicidal rate of 5% or less (almost no effect)); herbicidal effect rating, P: chickweed (chickweed; 266 g/ha): 3 (Herbicidal rate of 40% or more and less than 70%); effect on lambsquarters (O) (lambsquarters [1]; 266 g/ha): 3 (Herbicidal rate of 40% or more and less than 70%); herbicidal effect rating, O: lambsquarters (lambsquarters [2]; 266 g/ha): 4 (Herbicidal rate of 70% or more and less than 90%); herbicidal effect rating, I: wild oat (wild oat; 266 g/ha): 3 (Herbicidal rate of 40% or more and less than 70%); effect on velvetleaf (M) (velvetleaf [3]; 266 g/ha): 5 (Herbicidal rate of 90% or more (almost completely withered)); herbicidal effect rating, M: velvetleaf (velvetleaf [4]; 266 g/ha): 0 (Herbicidal rate of 5% or less (almost no effect)); herbicidal effect rating, R: persian speedwell (persian speedwell; 266 g/ha): 3 (Herbicidal rate of 40% or more and less than 70%); effect on Italian ryegrass (K) (Italian ryegrass; 266 g/ha): 2 (Herbicidal rate of 20% or more and less than 40%); herbicidal effect rating, G: green foxtail (green foxtail; 266 g/ha): 3 (Herbicidal rate of 40% or more and less than 70%); herbicidal effect rating, B: Japanese bulrush (Japanese bulrush; AAH 266 g/ha): 2 (Herbicidal rate of 20% or more and less than 40%); herbicidal effect rating, J: blackgrass (blackgrass; 266 g/ha): 0 (Herbicidal rate of 5% or less (almost no effect))
3 | CCCOc1ccc(-c2sc3ccc(F)cc3c2-c2c(O)c(C)nn(C)c2=O)cc1 [2-032] | 4 (Herbicidal rate of 70% or more and less than 90%) | 2 (Herbicidal rate of 20% or more and less than 40%) | 2 (Herbicidal rate of 20% or more and less than 40%) | 4 (Herbicidal rate of 70% or more and less than 90%) | 4 (Herbicidal rate of 70% or more and less than 90%) | 5 (Herbicidal rate of 90% or more (almost completely withered)) | 5 (Herbicidal rate of 90% or more (almost completely withered)) | 0 (Herbicidal rate of 5% or less (almost no effect)) | 5 (Herbicidal rate of 90% or more (almost completely withered)) | 5 (Herbicidal rate of 90% or more (almost completely withered)) | 5 (Herbicidal rate of 90% or more (almost completely withered)) | 4 (Herbicidal rate of 70% or more and less than 90%) | 3 (Herbicidal rate of 40% or more and less than 70%) | 4 (Herbicidal rate of 70% or more and less than 90%) | 0 (Herbicidal rate of 5% or less (almost no effect)) | –
4 | Cc1nn(C)c(=O)c(-c2c(-c3ccc(OC(C)C)cc3)sc3ccc(F)cc23)c1O [2-034] | 4 (Herbicidal rate of 70% or more and less than 90%) | 5 (Herbicidal rate of 90% or more (almost completely withered)) | 2 (Herbicidal rate of 20% or more and less than 40%) | 2 (Herbicidal rate of 20% or more and less than 40%) | 4 (Herbicidal rate of 70% or more and less than 90%) | 5 (Herbicidal rate of 90% or more (almost completely withered)) | 5 (Herbicidal rate of 90% or more (almost completely withered)) | 0 (Herbicidal rate of 5% or less (almost no effect)) | 5 (Herbicidal rate of 90% or more (almost completely withered)) | 4 (Herbicidal rate of 70% or more and less than 90%) | 4 (Herbicidal rate of 70% or more and less than 90%) | 5 (Herbicidal rate of 90% or more (almost completely withered)) | 4 (Herbicidal rate of 70% or more and less than 90%) | 3 (Herbicidal rate of 40% or more and less than 70%) | 1 (Herbicidal rate of 5% or more and less than 20%) | –
5 | CCCCOc1ccc(-c2sc3ccc(F)cc3c2-c2c(O)c(C)nn(C)c2=O)cc1 [2-036] | 4 (Herbicidal rate of 70% or more and less than 90%) | 2 (Herbicidal rate of 20% or more and less than 40%) | 0 (Herbicidal rate of 5% or less (almost no effect)) | 4 (Herbicidal rate of 70% or more and less than 90%) | 3 (Herbicidal rate of 40% or more and less than 70%) | 5 (Herbicidal rate of 90% or more (almost completely withered)) | 5 (Herbicidal rate of 90% or more (almost completely withered)) | 0 (Herbicidal rate of 5% or less (almost no effect)) | 5 (Herbicidal rate of 90% or more (almost completely withered)) | 4 (Herbicidal rate of 70% or more and less than 90%) | 4 (Herbicidal rate of 70% or more and less than 90%) | 3 (Herbicidal rate of 40% or more and less than 70%) | 0 (Herbicidal rate of 5% or less (almost no effect)) | 3 (Herbicidal rate of 40% or more and less than 70%) | 0 (Herbicidal rate of 5% or less (almost no effect)) | –
